From patent US11576884B2, “Amino acid compositions and uses thereof” (University of Florida Research Foundation, Incorporated, priority 2016, dated 2023)

Tested on: Lgr5
Assay: Western blot for Lgr5 protein
Assay type: in vivo, NIH Swiss mice
Conditions: individual amino acid by gastric gavage (300 ul OD) for 6 days; 0 Gy and 5 Gy irradiated mice
Procedure: For FIGS. 9-13, the data is from Male NIH Swiss mice (8 weeks) treated with individual amino acids (FIG. 9 (valine); FIG. 10 (tryptophan); FIG. 11 (serine); FIG. 12 (tyrosine); FIG. 13 (threonine)), as by gastric savage (300 ul OD) for a period of 6 days. Animals were sacrificed on day 6 by CO2 euthanasia and tissues collected for resolving the protein by western blot analysis. Lgr5 (100 KD) was used as the marker for crypt stem cell proliferation. These experiments are repeated at least 4 times (data shown) from 4 different mice.
Control groups were given normal saline. […] Mice fasted for 8 hours prior to gavage.
Signals were detected with Odyssey CLX from LI-COR.

SMILES: CC(C)[C@H](N)C(=O)O [valine]
- Lgr5 protein levels: increases
